Test results: article PMC10108392, “Rimonabant-Based Compounds Bearing Hydrophobic Amino Acid Derivatives as Cannabinoid Receptor Subtype 1 Ligands” (ACS Medicinal Chemistry Letters, 2023)
“Also recorded” adds a separate entry of the source.

Columns and labels:
[1] = test system: mice; test: Feeding test (food intake); type: in vivo, mouse; settings: 10 mg/kg i.p., 1-h test, vs vehicle
Method: The tested compounds were injected i.p. (10 mg/kg), and after leaving for 30 min to allow the drug assimilation, mice were placed into individual cages with access to a predefined amount of their standard lab chow (2 g) for the 1-h test.
(§1) In Vivo Biological Assays
The international and national law and policies approved by Italian Ministry of Health were used to comply with all animal care and experimental procedures. Animal studies were advised in compliance with the ARRIVE guidelines and with the recommendations made by EU Directive 2010/63/EU for animal experiments and the Basel declaration including the 3Rs concept. CD-1 male mice (10-14 weeks of age, 25-30 g of weight) were bought from Charles River (Milan, Italy). Shortly after their arrival and for at least one week, they were kept in an animal care facility under controlled standard conditions of temperature (21 ± 1 °C), light (from 7:00 AM to 7:00 PM), and relative humidity (60 ± 10%). Access to drinking water and food was assured. All procedures were performed to decrease the number of animals used (n = 7 per group) and their distress.
The test was carried out as previously described. At 24 h before the start of a feeding test, all food was removed from the home cages of mice to be tested. The next day and at least 1 h before the feeding test began, the mice were transported to the laboratory. On test days, the animals were placed in the home cages for 30 min of drug assimilation, during which food was not available. Then compounds were intraperitoneally administered (10 mg/kg). Mice were transferred into transparent and individual plastic cages with thick white paper lining the bottom and access to a pre-measured amount of their regular lab chow (2 gr) for the 1-h test. At the end of 1 h, mice were repositioned into their home cage. The amount of food left in the trial cage, including crumbs, was measured, and the amount consumed was calculated.
Feeding trials normally happened on Tuesdays and Fridays between 12:00 and 14:00 h. […]

[2] = test system: mice; test: Hot plate test; type: in vivo, mouse; settings: 10 μg/10 μL i.c.v., 15-120 min
Source text: as §1
The international and national law and policies approved by Italian Ministry of Health were used to comply with all animal care and experimental procedures. Animal studies were advised in compliance with the ARRIVE guidelines and with the recommendations made by EU Directive 2010/63/EU for animal experiments and the Basel declaration including the 3Rs concept. CD-1 male mice (10-14 weeks of age, 25-30 g of weight) were bought from Charles River (Milan, Italy). […]
The test was carried out as previously described. […] Mice were transferred into transparent and individual plastic cages with thick white paper lining the bottom and access to a pre-measured amount of their regular lab chow (2 gr) for the 1-h test. […] The amount of food left in the trial cage, including crumbs, was measured, and the amount consumed was calculated. […]
Thermal nociception (hot-plate test) was assessed with a commercially available apparatus consisting of a metal plate 25x25 cm (Ugo Basile, Italy) heated to a constant temperature of 55.0 ± 0.1 °C, on which a plastic cylinder (20 cm diameter, 18 cm high) was placed. The time of latency (s) was recorded from the moment the animal was placed in the cylinder on the hot plate until it licked its paws or jumped; the cut-off time was 60 s. […] The time course of latency was then determined at 15, 30, 45, 60, 90 and 120 min after compound treatment. […]

CNC(=O)[C@@H](NC(=O)c1nn(-c2ccc(Cl)cc2)c(-n2cccc2)c1C)C(C)(C)C [Compound 34, RS2691-tLeu-NHCH3]
food intake [1]: increase food intake; also recorded: increased the food intake; also recorded: significant orexic effect
anti-nociceptive effect in hot plate test (%MPE) [2]: strong and long-lasting anti-nociceptive effect; also recorded: more potent than that of the reference compound
